The values below come from patent publication US6531584B1, “2'modified oligonucleotides” (ISIS Pharmaceuticals, Inc., priority 1990, dated 2003).

The subject of one series is c-raf mRNA. The series can be described thus: Northern blot analysis of c-raf mRNA expression in T24 cells. Format: cell-based, human. The text has this: Chimeric oligonucleotides having SEQ ID NO:7 were designed using the Genbank c-raf sequence HUMRAFR (Genbank listing x03484), synthesized and tested for inhibition of c-raf mRNA expression in T24 bladder carcinoma cells using a Northern blot assay. These chimeric oligonucleotides have central “gap” regions of 6, 8 or 10 deoxynucleotides flanked by two regions of 2′-O-methyl modified nucleotides, and are shown in Table 10. Backbones were uniformly phosphorothioate. […] These oligonucleotides are preferred.
The human urinary bladder cancer cell line T24 was obtained from the American Type Culture Collection (Rockville, Md.). Cells were grown in McCoy's 5A medium with L-glutamine (GIBCO-BRL, Gaithersburg, Md.), supplemented with 10% heat-inactivated fetal calf serum and 50 U/ml each of penicillin and streptomycin. Cells were seeded on 100 mm plates. When they reached 70% confluency, they were treated with oligonucleotide. Plates were washed with 10 ml prewarmed PBS and 5 ml of OptiMEM reduced-serum medium containing 2.5 μl DOTMA. Oligonucleotide with lipofectin was then added to the desired concentration. After 4 hours of treatment, the medium was replaced with McCoy's medium. Cells were harvested 24 to 72 hours after oligonucleotide treatment and RNA was isolated using a standard CsCl purification method. [Kingston in Current Protocols in Molecular Biology, F. M. Ausubel, R. Brent, R. E. Kingston, D. D. Moore, J. A. Smith, J. G. Seidman and K. Strahl, Eds., John Wiley and Sons, New York.] Total RNA was isolated by centrifugation of cell lysates over a CsCl cushion. RNA samples were electrophoresed through 1.2% agarose-formaldehyde gels and transferred to hybridization. membranes by capillary diffusion over a 12-14 hour period. The RNA was cross-linked to the membrane by exposure to UV light in a Stratalinker (Stratagene, La Jolla, Calif.) and hybridized to random-primed ^32P-labeled c-raf cDNA probe (obtained from ATCC) or G3PDH probe as a control. RNA was quantitated using a Phosphorimager (Molecular Dynamics, Sunnyvale, Calif.).

Another series relates to ras mRNA. As to the kind of experiment: Northern blot analysis of ras expression in T24 cells. The series is classed as cell-based, human. Further details: inhibition of ras expression / decrease of ras mRNA: concentration or dose not given beside the values. The note with it: for inhibition of ras expression: T24 cells (activated codon-12); for inhibition of ras expression / decrease of ras mRNA: T24 cells, Northern blot. The method, then:
(§1) The human urinary bladder cancer cell line T24 was obtained from the American Type Culture Collection (Rockville Md.). Cells were grown in McCoy's 5A medium with L-glutamine (GIBCO-BRL, Gaithersburg, Md.), supplemented with 10% heat-inactivated fetal calf serum and 50 U/ml each of penicillin and streptomycin. Cells were seeded on 100 mm plates. When they reached 70% confluency, they were treated with oligonucleotide. Plates were washed with 10 ml prewarmed PBS and 5 ml of OptiMEM (GIBCO) reduced-serum medium containing 2.5 μl DOTMA. Oligonucleotide was then added to the desired concentration. After 4 hours of treatment, the medium was replaced with McCoy's medium. Cells were harvested 48 hours after oligonucleotide treatment and RNA was isolated using a standard CsCl purification method. [Kingston in Current Protocols in Molecular Biology, F. M. Ausubel, R. Brent, R. E. Kingston, D. D. Moore, J. A. Smith, J. G. Seidman and K. Strahl, Eds., John Wiley and Sons, New York.] The human epithelioid carcinoma cell line HeLa 229 was obtained from the American Type Culture Collection (Bethesda, Md.). HeLa cells were maintained as monolayers on 6-well plates in Dulbecco's Modified Eagle's medium (DMEM) supplemented with 10% fetal bovine serum and 100 U/ml penicillin. Treatment with oligonucleotide and isolation of RNA were essentially as described above for T24 cells.
Northern hybridization: 10 μg of each RNA was electrophoresed on a 1.2% agarose/formaldehyde gel and transferred overnight to GeneBind 45 nylon membrane (Pharmacia LKB, Piscataway, N.J.) using standard methods. [Kingston in Current Protocols in Molecular Biology, F. M. Ausubel, R. Brent, R. E. Kingston, D. D. Moore, J. A. Smith, J. G. Seidman and K. Strahl, Eds., John Wiley and Sons, New York.] RNA was UV-crosslinked to the membrane. Double-stranded ^32P-labeled probes were synthesized using the Prime a Gene labeling kit (Promega, Madison, Wis.). The ras probe was a SalI-NheI fragment of a cDNA clone of the activated (mutant) H-ras mRNA having a GGC-to-GTC mutation at codon-12. The control probe was G3PDH. Blots were prehybridized for 15 minutes at 68° C. with the QuickHyb hybridization solution (Stratagene, La Jolla, Calif.). The heat-denatured radioactive probe (2.5×10^6 counts/2 ml hybridization solution) mixed with 100 μl of 10 mg/ml salmon sperm DNA was added and the membrane was hybridized for 1 hour at 68° C. The blots were washed twice for 15 minutes at room temperature in 2×SSC/0.1% SDS and once for 30 minutes at 60° C. with 0.1×SSC/0.1%SDS. Blots were autoradiographed and the intensity of signal was quantitated using an ImageQuant PhosphorImager (Molecular Dynamics, Sunnyvale, Calif.). Northern blots were first hybridized with the ras probe, then stripped by boiling for 15 minutes in 0.1×SSC/0.1%SDS and rehybridized with the control G3PDH probe to check for correct sample loading.

Series [1] deals with ras mRNA (wild-type H-ras codon-12). The series can be described thus: Northern blot analysis of ras expression in HeLa cells. The note with it: HeLa cells (wild-type H-ras codon-12). Format: cell-based, human. As for the experimental part:
as §1, with “The human epithelioid carcinoma cell line HeLa 229 was obtained from the American Type Culture Collection (Bethesda, Md.). HeLa cells were maintained as monolayers on 6-well plates in Dulbecco's Modified Eagle's medium (DMEM) supplemented with 10% fetal bovine serum and 100 U/ml penicillin. Treatment with oligonucleotide and isolation of RNA were essentially as described above for T24 cells.” left out
Northern hybridization: 10 μg of each RNA was electrophoresed on a 1.2% agarose/formaldehyde gel and transferred overnight to GeneBind 45 nylon membrane (Pharmacia LKB, Piscataway, N.J.) using standard methods. […] Blots were autoradiographed and the intensity of signal was quantitated using an ImageQuant PhosphorImager (Molecular Dynamics, Sunnyvale, Calif.). […]

Series [2] has as its system RNA complement “Y” strand ribo(3′GAG CAU GGY AAG GCC AGG5′). The series can be described thus: Base-pair specificity: single base mismatches and bulge, thermal melting. The series is classed as binding. The note with it: single base-pair mismatches and a bulge. As for the experimental part:
The ability of the 2′-modified oligonucleotides to hybridize to their complementary RNA or DNA sequences was determined by thermal melting analysis. The RNA complement was synthesized from T7 RNA polymerase and a template-promoter of DNA synthesized with an Applied Biosystems, Inc. 380B RNA species was purified by ion exchange using FPLC (LKB Pharmacia, Inc.). Natural antisense oligonucleotides or those containing 2′-modifications at specific locations were added to either the RNA or DNA complement at stoichiometric concentrations and the absorbance (260 nm) hyperchromicity upon duplex to random coil transition was monitored using a Gilford Response II spectrophotometer. These measurements were performed in a buffer of 10 mM Na-phosphate, pH 7.4, 0.1 mM EDTA, and NaCl to yield an ionic strength of 10 either 0.1 M or 1.0 M. Data was analyzed by a graphic representation of 1/Tm vs ln[Ct], where [Ct] was the total oligonucleotide concentration. From this analysis the thermodynamic parameters were determined. Based upon the information gained concerning the stability of the duplex of heteroduplex formed, the placement of modified pyrimidine into oligonucleotides were assessed for their effects on helix stability.
Base-pair specificity of 2′-deoxy-2′-fluoro modified oligonucleotides with the RNA complement (a “Y” strand) was determined by effecting single base-pair mismatches and a bulge. […]

In series [3] the test system is mutant (activated) H-ras RNA. The series is classed as cell-based, human.
The subject of a further series is T24 cancer cell. The series can be described thus: Inhibition of proliferation of cancer cells. The series is classed as cell-based, human. The note with it: 100 nM oligonucleotide concentration. As for the experimental part: Cells were cultured and treated with oligonucleotide essentially as described in Example 27. Cells were seeded on 60 mm plates and were treated with oligonucleotide in the presence of DOTMA when they reached 70% confluency. Time course experiment: On day 1, cells were treated with a single dose of oligonucleotide at a final concentration of 100 nM. The growth medium was changed once on day 3 and cells were counted every day for 5 days, using a counting chamber. Dose-response experiment: Various concentrations of oligonucleotide (10, 25, 50, 100 or 250 nM) were added to the cells and cells were harvested and counted 3 days later. Oligonucleotides 2570, 3985 and 4690 were tested for effects on T24 cancer cell proliferation. EXAMPLE 29

Entries after “also recorded” stand apart in the source; their conditions may differ. d = 2'-deoxy (DNA); m = 2'-O-methyl

On to “TCCCGCCTGTGACATGCATT (2'-O-methyl P=S chimera, 8-deoxy gap, chemistry not fully specified) [ISIS 6717]”, for which the “inhibition of c-raf mRNA expression” value with c-raf mRNA is “greater than 90%”.
“CTCGCCCGCTCCTCCTCCCC (2'-O-methyl P=S chimera, chemistry not fully specified) [ISIS 7849]”: the “inhibition of c-raf mRNA expression” value in the series with c-raf mRNA is on record as above 70%.
Same read-out and setting: next, “TTCTCGCCCGCTCCTCCTCC (2'-O-methyl P=S chimera, chemistry not fully specified) [ISIS 7856]”: above 70%.
With “TCCTCCTCCCCGCGGCGGGT (2'-O-methyl P=S chimera, chemistry not fully specified) [ISIS 7848]”, in the series on c-raf mRNA, the “inhibition of c-raf mRNA expression” value is above 70%.
As for “TCCGTCATCGCTCCTCAGGG [Oligonucleotide 2503]”, the “inhibition of ras expression” value with ras mRNA is “inhibited ras expression in T24 cells”; in series [1] it was “inhibited ras expression in HeLa cells”. For the same substance, in the series with ras mRNA (listed as 2503), the “inhibition of ras expression / decrease of ras mRNA” value is recorded as 71%.
Take “TTCTCCTCCTCCCCTGGCAG (sugars from the 5' end m12 d8, all phosphorothioate, T or U not given here) [ISIS 7854]”: the “inhibition of c-raf mRNA expression” value in the series with c-raf mRNA is on record as above 70%.
Turning to “deoxy(CUC GUACCUUUCCGG UCC) (CUCGUACCUUUCCGGUCC; 14 2'-deoxy-2'-fluoro nucleotides, chemistry not fully specified)”, in series [2], the “specificity of duplex formation with the RNA complement” value is reported as “greater specificity than a like-sequenced unmodified oligonucleotide”.
With “TCCCGCCTGTGACATGCATT (2'-O-methyl P=S chimera, 6-deoxy gap, chemistry not fully specified) [ISIS 6720]”, the “inhibition of c-raf mRNA expression” value with c-raf mRNA is reported as “greater than 70%”.
“CdCdAd CdAdCd CdGdAd CdGdGd CdGdCd CdCd [Oligonucleotide 2570, reference compound]”: in series [3], the “inhibition of ras-luciferase activity” value is reported as “dose-dependent inhibition of ras-luciferase activity” and the “selectivity toward the mutant form of ras-luciferase as compared to the normal form” value is listed as “approximate threefold selectivity”. Besides, in the series with ras mRNA, the “inhibition of ras expression” value is reported as “inhibited ras expression in T24 cells; also recorded: decreased ras mRNA levels in T24 cells” and the “inhibition of ras expression / decrease of ras mRNA” value is recorded as 82%. The “inhibition of ras expression” value in series [1] is reported as “did not inhibit ras expression in HeLa cells”. In the series on T24 cancer cell, the “inhibition of T24 cell proliferation relative to inhibition of HeLa cells” value is reported as “four times as severe”.
